Reference: patent publication US20250186600A1, “EXCIPIENT COMPOUNDS FOR PROTEIN FORMULATIONS” (Comera Life Sciences, Inc., priority 2020, published 2025)
Where “and” joins values, the source holds several entries; their conditions need not be identical. Equal entries are not always repeated. Structures can show the parent of a compound that is named as a salt.

Assays:
infliximab = assay: Thermal degradation assay at 55° C., normalized monomer loss rate by HP-SEC (Example 51); type: physicochemical; details: infliximab about 2 mg/mL, 20 mM phosphate pH 7, 55° C.
Method: ® infliximab was obtained from the Clinigen Group and reconstituted according to the instructions in the Janssen package insert, resulting in a 10 mg/mL infliximab solution in 5 mM phosphate buffer, pH about 7, with 50 mg/mL sucrose and 0.05 mg/mL polysorbate 80. The reconstituted drug product was then combined 1:1 by volume with 50 mM sodium acetate buffer at pH 5. The resulting solution was then injected onto a small preparative scale cation exchange column (GE Healthcare, Chicago, IL). After the infliximab was loaded onto the column, the column was washed with 10 column volumes of 50 mM sodium acetate buffer, pH 5. The infliximab was then eluted from the column with five column volumes of a 250 mM sodium chloride, 50 mM sodium acetate buffer at pH 5. […] Stock solutions of either 4 or 8 mg/mL infliximab in 20 mM phosphate buffer at pH 7 were then used in subsequent tests.
All excipients used in this Example, listed in Table 52 below, were of the highest purity, and were obtained from Sigma Aldrich (St. Louis, MO) or Cayman Chemical (Ann Arbor, MI). The stock infliximab solutions were mixed with stock excipient solutions containing the excipients listed in Table 52 formulated in 20 mM phosphate buffer, pH 7 to achieve a final infliximab concentration of about 2 mg/mL in each sample. The samples containing the infliximab solutions and the stock excipient solutions were then aliquoted into five 100 μL aliquots in PCR tubes. […] These stressed samples were then analyzed for monomer content by high performance size exclusion chromatography (HP-SEC) using an Agilent 1100 series HPLC equipped with a diode array detector monitoring absorbance at 280 nm. […] For each sample, the monomer peak area was divided by the monomer peak area obtained from an identical but unstressed sample to obtain the percent monomer remaining after exposure to thermal stress. The remaining monomer as a percentage of the unstressed sample was then plotted as a function of incubation time and the absolute value of the slope of a linear fit to the data was recorded as the monomer loss rate.

[1] = system: bovine gamma globulin (BGG); assay: Normalized viscosity of BGG with caffeine and a secondary excipient (Example 40); type: physicochemical; details: Excipient A caffeine 15 mg/mL + Excipient B 20 mg/mL; BGG about 280 mg/mL, 20 mM histidine pH 6, 25° C.
ustekinumab [2] = assay: Urea denaturation, Sypro orange fluorescence (Example 44); type: physicochemical; details: excipient 5 mg/mL, ustekinumab 1 mg/mL, 6M urea, 20 mM histidine pH 6.0, Sypro orange fluorescence
From the text: It is known that urea denatures proteins in solution and causes them to unfold. The screening methodology in this example involved adding a specific concentration of urea to a therapeutic protein solution such as ustekinumab. […] One method to track protein unfolding involves the use of extrinsic fluorescent dyes such as Sypro orange. Sypro orange binds to hydrophobic regions in the unfolded protein structure, leading to an increase in the fluorescence signal observed. Measuring the differences in the fluorescence intensity of unfolded protein-Sypro orange complex in presence of different excipients thus allows one to identify any stabilizing effects.
All excipients used in this Example, listed in Table 45 below, were of the highest purity, and were obtained from Sigma Aldrich (St. Louis, MO) or Cayman Chemical (Ann Arbor, MI). […] This urea stock solution was then added to a final concentration of 6M to produce the test solutions (excipient plus protein plus urea). […] The pH of the mixture was rechecked and confirmed to be at pH 6.0. The test solutions were allowed to incubate at room temperature for 30 min.

ustekinumab [3] = assay: Stabilization at low pH, Sypro orange fluorescence (Example 45); details: excipient 5 mg/mL, ustekinumab 1 mg/mL, glycine acidification buffer pH 2.6, Sypro orange fluorescence
omalizumab [4] = assay: DLS viscosity of concentrated omalizumab (Example 53); type: physicochemical; set-up: key to DLS Viscosity, Replicate 1: observation on combining excipient with protein / DLS Viscosity, Replicate 2: observation on combining excipient with protein: * Combination of excipient with protein resulted in reversible precipitation; details: 20 mM HisHCl pH 6; for DLS Viscosity, Replicate 1 / DLS Viscosity, Replicate 2: concentrated omalizumab 9 parts : 1 part excipient stock (1 M or solubility limit)
Method: O-(octylphosphoryl)choline was purchased from Sigma Aldrich (St. […] O-(octylphosphoryl)choline was used as a stock excipient without additional preparation. […] In this example, the ratio of apparent radius to the actual radius of the gold nanoparticle was multiplied by the viscosity of water at 25° C. to calculate the viscosity of the protein formulation in centipoise (cP).

omalizumab [5] = assay: DLS viscosity of concentrated omalizumab (Example 54); type: physicochemical; details: concentrated omalizumab 9 parts : 1 part excipient stock (1 M or solubility limit), 20 mM HisHCl pH 6
Method: Hordenine HCl was purchased from Bulk Supplements (Henderson, NV).
The concentrated protein formulation was then combined with a stock excipient solution or a control at a ratio of 9 parts protein: 1 part excipient solution or buffer (for the control), and aliquots were added to the wells of a 384 well microplate (Aurora Microplates, Whitefish, MT). […] After the microplate was shaken, 2 microliters of a 5-fold dilution of polyethylene glycol surface-modified gold nanoparticles having a diameter of 100 nm (nanoComposix, San Diego, CA) in 20 mM His HCl were added to each sample well. […] In this example, the ratio of apparent radius to the actual radius of the gold nanoparticle was multiplied by the viscosity of water at 25° C. to calculate the viscosity of the protein formulation in centipoise (cP).

[6] = Caffeine solubility with co-solutes during refrigerated storage (Example 61); type: physicochemical; set-up: key: (PPT)—precipitate observed; (—)—clear solution observed; details: 50 mM co-solute, 25 mM histidine pH 6, stored 2 to 5° C.
Method: The resulting microplates were then sealed with microplate tape and stored in a refrigerator with the temperature maintained in the range of 2 to 5° C. Over the course of storage, the microplates were visually observed for evidence of precipitate in the well.

[7] = concentrated omalizumab 9 parts : 1 part excipient stock

Question: Which Monomer loss rate (infliximab; excipient 125 mM) does the source give for `Cl.N=C(N)NCCC[C@H](N)C(=O)O` [Arg HCl] here?
Answer: 0.1186 % mon/min

Question: What about the “Normalized monomer loss rate” value (infliximab; excipient 125 mM) of the same compound?
Answer: 0.740

Question: Which “Normalized Viscosity” value [1] does the source give for `N[C@@H](CC(=O)O)C(=O)O` [Aspartic acid] here?
Answer: 0.73

Question: For `O[C@H]1[C@H](O)[C@@H](O)CN2CC[C@H](O)[C@H]12` [Castanospermine], which “% increased stability” value (ustekinumab [2]) is on record?
Answer: 7.0%

Question: And the “% change in stability” value (ustekinumab [3])?
Answer: 95.9%

Question: With `NCCSSCCN` [Cystamine] as the compound, how does the “% increased stability” value (ustekinumab [2]) read?
Answer: 8.8%

Question: What about the “% change in stability” value (ustekinumab [3]) of the same compound?
Answer: 17.8%

Question: With `CCN(CC)CCOC(=O)C1(C2CCCCC2)CCCCC1` [Dicyclomine HCl] as the compound, how does the “DLS Viscosity, Replicate 1: observation on combining excipient with protein” value (omalizumab [4]; [7]) read?
Answer: *

Question: What about the “DLS Viscosity, Replicate 2: observation on combining excipient with protein” value (omalizumab [4]; [7]) of the same compound?
Answer: *

Question: Which results are given for `CC(O)(P(=O)(O)O)P(=O)(O)O` [Etidronate]?
Answer: Monomer loss rate (infliximab; excipient 25 mM): 0.0824 % mon/min; Normalized monomer loss rate (infliximab; excipient 25 mM): 0.514; Monomer loss rate (infliximab; excipient 50 mM): 0.0685 % mon/min; Normalized monomer loss rate (infliximab; excipient 50 mM): 0.428; Monomer loss rate (infliximab; excipient 100 mM): 0.0321 % mon/min and 0.0284 % mon/min; Normalized monomer loss rate (infliximab; excipient 100 mM): 0.200 and 0.177

Question: Which “DLS Viscosity, Replicate 1” value (omalizumab [4]) does the source give for `CCCCn1ccnc1` [Excipient 1-butylimidazole, 1-butylimidazole] here?
Answer: 16.8 cP

Question: And the “DLS Viscosity, Replicate 2” value (omalizumab [4])?
Answer: 15.6 cP

Question: And the “DLS Viscosity, Replicate 1” value (omalizumab [5])?
Answer: 40.5 cP

Question: And the “DLS Viscosity, Replicate 2” value (omalizumab [5])?
Answer: 74.0 cP

Question: For `CCCCCCn1ccnc1` [Excipient 1-hexylimidazole, 1-hexylimidazole], which “DLS Viscosity, Replicate 1” value (omalizumab [4]) is on record?
Answer: 13.6 cP

Question: What about the “DLS Viscosity, Replicate 2” value (omalizumab [4]) of the same compound?
Answer: 14.0 cP

Question: What about the “DLS Viscosity, Replicate 1” value (omalizumab [5]) of the same compound?
Answer: 27.0 cP

Question: What about the “DLS Viscosity, Replicate 2” value (omalizumab [5]) of the same compound?
Answer: 33.1 cP

Question: For `O=S(=O)(O)CCN1CCN(CCO)CC1` [HEPES], which “DLS Viscosity, Replicate 1” value (omalizumab [4]) is on record?
Answer: 15.9 cP

Question: What about the “DLS Viscosity, Replicate 2” value (omalizumab [4]) of the same compound?
Answer: 17.4 cP

Question: Which Monomer loss rate (infliximab; excipient 150 mM) does the source give for `[Cl-].[Na+]` [NaCl] here?
Answer: 0.0727 % mon/min

Question: And the “Normalized monomer loss rate” value (infliximab; excipient 150 mM)?
Answer: 0.454

Question: With `NC[C@H]1O[C@H](O[C@H]2[C@H](O)[C@@H](O)[C@H](N)C[C@@H]2N)[C@H](N)[C@@H](O)[C@@H]1O` [Neamine] as the compound, how does the “% increased stability” value (ustekinumab [2]) read?
Answer: 2.8%

Question: And the “% change in stability” value (ustekinumab [3])?
Answer: 5.9%

Question: Which results are given for `NC(=O)c1cccnc1` [Nicotinamide]?
Answer: % increased stability (ustekinumab [2]): 2.7%; Day 1 (visual observation for precipitate) ([6]; caffeine 7.5 mg/mL): —; Day 7 (visual observation for precipitate) ([6]; caffeine 7.5 mg/mL): —; Day 18 (visual observation for precipitate) ([6]; caffeine 7.5 mg/mL): —; Day 27 (visual observation for precipitate) ([6]; caffeine 7.5 mg/mL): —; Day 56 (visual observation for precipitate) ([6]; caffeine 7.5 mg/mL): —; Day 1 (visual observation for precipitate) ([6]; caffeine 10 mg/mL): —; Day 7 (visual observation for precipitate) ([6]; caffeine 10 mg/mL): —; Day 18 (visual observation for precipitate) ([6]; caffeine 10 mg/mL): —; Day 27 (visual observation for precipitate) ([6]; caffeine 10 mg/mL): —; Day 56 (visual observation for precipitate) ([6]; caffeine 10 mg/mL): —; Day 1 (visual observation for precipitate) ([6]; caffeine 12.5 mg/mL): —; Day 7 (visual observation for precipitate) ([6]; caffeine 12.5 mg/mL): —; Day 18 (visual observation for precipitate) ([6]; caffeine 12.5 mg/mL): —; Day 27 (visual observation for precipitate) ([6]; caffeine 12.5 mg/mL): —; Day 56 (visual observation for precipitate) ([6]; caffeine 12.5 mg/mL): —; Day 1 (visual observation for precipitate) ([6]; caffeine 15 mg/mL): —; Day 7 (visual observation for precipitate) ([6]; caffeine 15 mg/mL): —; Day 18 (visual observation for precipitate) ([6]; caffeine 15 mg/mL): —; Day 27 (visual observation for precipitate) ([6]; caffeine 15 mg/mL): —; Day 56 (visual observation for precipitate) ([6]; caffeine 15 mg/mL): PPT; Day 1 (visual observation for precipitate) ([6]; caffeine 20 mg/mL): —; Day 7 (visual observation for precipitate) ([6]; caffeine 20 mg/mL): —; Day 18 (visual observation for precipitate) ([6]; caffeine 20 mg/mL): PPT; Day 27 (visual observation for precipitate) ([6]; caffeine 20 mg/mL): PPT; Day 56 (visual observation for precipitate) ([6]; caffeine 20 mg/mL): PPT

Question: With `CCCCCCCCOP(=O)([O-])OCC[N+](C)(C)C` [O-(octylphosphoryl)choline] as the compound, how does the “DLS Viscosity, Replicate 1” value (omalizumab [4]) read?
Answer: 35.6 cP

Question: What about the “DLS Viscosity, Replicate 2” value (omalizumab [4]) of the same compound?
Answer: 35.4 cP

Question: Which “DLS Viscosity, Replicate 1” value (omalizumab [4]) does the source give for `OC(CCN1CCCCC1)(c1ccccc1)c1ccccc1` [Pridinol Methanesulfonate] here?
Answer: 45.5 cP

Question: And the “DLS Viscosity, Replicate 2” value (omalizumab [4])?
Answer: 36.2 cP

Question: For `OC[C@@H](O)[C@@H](O)[C@H](O)[C@@H](O)CO` [Sorbitol], which Monomer loss rate (infliximab; excipient 200 mM) is on record?
Answer: 0.0656 % mon/min

Question: And the “Normalized monomer loss rate” value (infliximab; excipient 200 mM)?
Answer: 0.409

Question: Which results are given for `NCCCCNCCCN` [Spermidine]?
Answer: % increased stability (ustekinumab [2]): 12.9%; % change in stability (ustekinumab [3]): 98.1%

Question: For `NCCCNCCCCNCCCN` [Spermine], which “% increased stability” value (ustekinumab [2]) is on record?
Answer: 16.8%

Question: And the “% change in stability” value (ustekinumab [3])?
Answer: 90.0%

Question: With `CCNC(=O)CC[C@H](N)C(=O)O` [Theanine] as the compound, how does the “% increased stability” value (ustekinumab [2]) read?
Answer: 6.1%

Question: And the “% change in stability” value (ustekinumab [3])?
Answer: 8.3%
